Laboratory results taken from patent US8586604B2, “Inhibitors of the microsomal prostaglandin E2 synthase-1” (Boehringer Ingelheim International GmbH, priority 2010, dated 2013).

The compounds below were run against T1, recombinant human mPGES-1 (Homo sapiens, UniProt O14684) (assay: mPGES-1 enzyme assay (HTRF detection of PGE2)). Settings: recombinant human mPGES-1 microsomes, PGH2 2 μM, read-out: mPGES-1 inhibitory effect IC50.
T1 construct: made in house; host or cells: Rosetta E. coli (membrane/microsome fraction)
T1 sequence (O14684 1-152): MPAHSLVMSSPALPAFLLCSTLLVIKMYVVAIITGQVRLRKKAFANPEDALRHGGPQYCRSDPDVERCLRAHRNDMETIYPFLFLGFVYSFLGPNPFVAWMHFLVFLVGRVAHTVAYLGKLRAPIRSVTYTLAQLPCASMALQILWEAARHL
Type: biochemical
Experimental: Microsomes from Rosetta E. coli bacteria expressing recombinant human mPGES-1 can be derived as described below:
Inoculate 5 ml LB with Ampicilin (50 μg/ml) and Chloramphenicol (34 μg/ml) with bacteria from freeze culture. Incubate 8 h at 37° C. with 200 rpm. Thereafter, inoculate 500-1000 ml LB containing Amp and Chloro with the 5 ml on culture and grow to OD640 of 0.8-1.0.
Chill the culture to +4° C. before induction. Induce the culture with IPTG at a final concentration of 400 μM. Express the protein at room temp 18-23° C. with 200 rpm shaking over night.
The following steps can be performed on the following day: • 1. Spin down the cells in 250 ml centrifuge flasks for 15 min at 7000 rpm (Beckmann Coulte Avanti J-E centrifuge) • 2. Dissolve the pellet from 250 ml culture in 12.5 ml homogenization buffer • 3. (15 mM Tris-HCL pH8, 1 mM EDTA pH8, 0.25 mM Sucrose, 2.5 mM GSH, 1Tablet Protease inhibitor per 50 ml buffer) • 4. Disintegrate the cells by sonication, 5×10 seconds at 48% amplitude of a 750 W sonifier • 5. Add 2.5 ml MgCl2 (100 mM) and DNase 12.5 μl (0.8 mg/ml) and incubate on ice for 30 min • 6. Spin down the bacteria debris and save the supernatant, 7000 rpm for 15 min • 7. Isolate the protein containing membranes in the supernatant by ultracentrifugation 120000×g for 2 hour at 4° C. (Sorvall T880 rotor). • 8. Discard the supernatant and dissolve the pellet in 20 mM Potassium phosphate buffer pH7.4 (KH2PO4 and K2HPO4) buffer by sonication (5×10 s, 30% of a 50 W sonifier) and aliquot the enzyme and store aliquots at −80° C.
Before each experiment is performed an aliquot of the enzyme is thawed and it can then be dissolved in 0.1 M Potassium phosphate buffer pH7.4 (KH2PO4 and K2HPO4) buffer containing 2.5 mM GSH.
The aim of this assay is to determine the affinity of a test compound for the mPGES-1 enzyme.
47 μl of recombinant human mPGES-1 (˜0.5 μg protein/well) containing microsomal suspension in a buffer containing GSH, (2.5 mmol/L L-Glutathione reduced, dissolved in 0.1 mol/L Phosphat Buffer pH 7.4) is dispensed in a 384-well plate and thereafter 1 μl of the test compound(s) is/are added and incubated for 25 minutes at room temperature. The enzyme reaction is started by the addition of 2 ul PGH2 (final conc. 2 μM) dissolved in water-free Diglyme. After 60 seconds the reaction is terminated by addition of a stop solution containing FeCl2 (10 μL 0.074 mol/l FeCl2). The samples are diluted between 1:25 in PBS (Phosphate Buffered Saline). 10 μl of the diluted samples are transferred to 384-well low volume plate. In order to quantify the amount of PGE2 that has been formed, a homogenous time resolved fluorescent (HTRF) detecting of PGE2 has been performed using a commercially available kit from Cisbio according to the manufactures recommendation. This HTRF-based assay has been described in detail (see: Goedken et al., J Biomol Screen, 2008, 13(7), 619-625). Briefly, the diluted samples are mixed with 5 μl PGE2-d2 conjungate and 5 μl anti-PGE2 cryptate conjungate. After an incubation period of the plates over night, the fluorescence is measured by the use of an appropriate microplate reader.
The fluorescence of Europium cryptate (maxex=307 nm, maxem=620 nm) and d2-PGE2 (maxex=620 nm, maxem=665 nm) are measured.
The extent of the specific HTRF is measured as a ratio of the emission intensity at 665 nm vs. that at 620 nm at an excitation pulse of 320 nm. The quantification plate contains also wells with different concentrations of PGE2 as calibration curve for the calculation of the PGE2 concentrations from the HTRF ratio values.
From all mPGES enzyme assay the background is subtracted and the IC50 is calculated over a nonlinear regression with conventional software.

Row | IC50 | SMILES
1 | 9 nM | Cn1c(Nc2cc(CNC(=O)C(C)(C)C)ccc2Cl)nc2cc(C(=O)Nc3ccc(Br)cc3)c(OCC(F)F)nc21 [Example 1, N-{4-Chloro-3-[6-(4-bromo-phenylcarbamoyl)-5-(2,2-difluoro-ethoxy)-3-methyl-3H-imidazo[4,5-b]pyridin-2-ylamino]benzyl}-2,2-dimethyl-propionamide]
2 | 3 nM | Cn1c(Nc2cc(CNC(=O)C(C)(C)C)ccc2Cl)nc2cc(C(=O)N[C@H]3CC[C@H](C(F)(F)F)CC3)c(OCC(F)F)nc21 [Example 2, N-{4-Chloro-3-[6-(trans-4-trifluoromethyl-cyclohexylcarbamoyl)-5-(2,2-difluoro-ethoxy)-3-methyl-3H-imidazo[4,5-b]pyridin-2-ylamino]benzyl}-2,2-dimethyl-propionamide]
3 | 21 nM | COCCOc1nc2nc(Nc3cc(CNC(=O)C4(C(F)(F)F)CC4)ccc3Cl)[nH]c2cc1C(=O)N[C@H]1CC[C@H](C(F)(F)F)CC1 [Example 3]
4 | 8 nM | COCCOc1nc2c(cc1C(=O)N[C@H]1CC[C@H](C(F)(F)F)CC1)nc(Nc1cc(CNC(=O)C3(C(F)(F)F)CC3)ccc1Cl)n2C [Example 4]
5 | 4 nM | O=C(N[C@H]1CC[C@H](C(F)(F)F)CC1)c1cc2nc(Nc3cc(CNC(=O)C4(C(F)(F)F)CC4)ccc3Cl)[nH]c2nc1OCC(F)F [Example 5]
6 | 4 nM | Cn1c(Nc2cc(CNC(=O)C3(C(F)(F)F)CC3)ccc2Cl)nc2cc(C(=O)N[C@H]3CC[C@H](C(F)(F)F)CC3)c(OCCF)nc21 [Example 6]
7 | 8 nM | O=C(N[C@H]1CC[C@H](C(F)(F)F)CC1)c1cc2[nH]c(Nc3cc(CNC(=O)C4(C(F)(F)F)CC4)ccc3Cl)nc2nc1OCCF [Example 7]
8 | 3 nM | CC(C)(C)C(=O)NCc1ccc(Cl)c(Nc2nc3cc(C(=O)N[C@H]4CC[C@H](C(F)(F)F)CC4)c(OCC(F)F)nc3[nH]2)c1Cl [Example 8, N-{2,4-Dichloro-3-[6-(trans-4-trifluoromethyl-cyclohexylcarbamoyl)-5-(2,2-difluoro-ethoxy)-1H-imidazo[4,5-b]pyridin-2-ylamino]benzyl}-2,2-dimethyl-propionamide]
9 | 6 nM | Cn1c(Nc2c(Cl)ccc(CNC(=O)C(C)(C)C)c2Cl)nc2cc(C(=O)N[C@H]3CC[C@H](C(F)(F)F)CC3)c(OCC(F)F)nc21 [Example 9, N-{2,4-Dichloro-3-[6-(trans-4-trifluoromethyl-cyclohexylcarbamoyl)-5-(2,2-difluoro-ethoxy)-3-methyl-3H-imidazo[4,5-b]pyridin-2-ylamino]benzyl}-2,2-dimethyl-propionamide]
10 | 5 nM | Cn1c(Nc2c(F)ccc(CNC(=O)C(C)(C)C)c2F)nc2cc(C(=O)N[C@H]3CC[C@H](C(F)(F)F)CC3)c(OCC(F)F)nc21 [Example 10, N-{2,4-Difluoro-3-[6-(trans-4-trifluoromethyl-cylohexylcarbamoyl)-5-(2,2-difluoro-ethoxy)-3-methyl-3H-imidazo[4,5-b]pyridin-2-ylamino]benzyl}-2,2-dimethyl-propionamide]
11 | 4 nM | CC(C)(C)C(=O)NCc1ccc(F)c(Nc2nc3cc(C(=O)N[C@H]4CC[C@H](C(F)(F)F)CC4)c(OCC(F)F)nc3[nH]2)c1F [Example 11]
12 | 1 nM | O=C(N[C@H]1CC[C@H](C(F)(F)F)CC1)c1cc2nc(Nc3c(Cl)ccc(CNC(=O)C4(C(F)(F)F)CC4)c3Cl)[nH]c2nc1OCCOC(F)F [Example 12]
13 | 1 nM | CC(C)(C)C(=O)NCc1ccc(Cl)c(Nc2nc3cc(C(=O)NCC(F)F)c(OCC(F)F)nc3n2CC(F)F)c1Cl [Example 14]
14 | 4 nM | CC(C)(C)C(=O)NCc1ccc(Cl)c(Nc2nc3cc(C(=O)N[C@H]4CC[C@H](C(F)(F)F)CC4)c(OCC(F)F)nc3n2CC(F)F)c1Cl [Example 15]
15 | 1 nM | CC(C)(C)C(=O)NCc1ccc(Cl)c(Nc2nc3cc(C(=O)N[C@H]4CC[C@H](C(F)(F)F)CC4)c(OCC(F)F)nc3[nH]2)c1F [Example 156, N-{2-Fluoro-4-chloro-3-[6-(trans-4-trifluoromethyl-cyclohexylcarbamoyl)-5-(2,2-difluoro-ethoxy)-1H-imidazo[4,5-b]pyridin-2-ylamino]benzyl}-2,2-dimethyl-propionamide]
16 | 2 nM | CC(C)(C)C(=O)NCc1ccc(Cl)c(Nc2nc3cc(C(=O)Nc4ccc(F)c(Cl)c4)c(OCC(F)F)nc3[nH]2)c1Cl [Example 157]
